Laboratory results published in patent publication US5116818A, “Method and kit for contraception with GnRH-antagonist” (Medical College of Hampton Roads, priority 1990, dated 1992).

Tested on: cynomolgus monkeys (Macaca fascicularis)
Test: Study III: once-weekly Nal-Glu GnRH-antagonist plus 12 days of norgestimate, three treatment cycles
Type: in vivo
Method: STUDY III. In this study, which is reported in more detail in Contraception, June, 1990, Vol. 31, No. 6, pp. 623-631, six regularly cycling adult female cynomolgus monkeys (Macaca fascicularis) were housed in individual cages in a controlled environment and checked daily for menstrual flow. Each primate underwent a study entry control menstrual cycle in which alternate day blood samples were taken (under ketamine anesthesia, 10 mg/kg, im) to verify maturation of the dominant follicle, presumed ovulation, and corpus luteum function. The experimental design is depicted in FIG. 1. On menstrual cycle days 2, 9, 16, and 23 (onset of menses =Day 1) three of the monkeys were injected sc with 0.1 mg/kg GnRH-antagonist ([Ac-D2 Nal^1, 4ClDPhe^2, D3 Pal^3, Arg^5,DGlu^6 (AA), DAla^10 ]- GnRH; Nal-Glu) in saline. This dose was selected based on dose-response findings reported in Fertil Seril 1987; 48:480-485. On cycle days 15 to 26, each female was administered 25 μg norgestimate/day orally. This treatment regimen (once-weekly GnRH-antagonist plus 12 days of progestin) was repeated for 2 additional cycles (84 days total). Two of the treated monkeys were ovariectomized at the end of the third treatment cycle to evaluate ovarian follicular morphology. […] Three control monkeys received saline injections and blank (progestin placebo) capsules according to the same regimen. Serum samples were assayed by RIA for estradiol, progesterone, LH, and FSH.

Molecule	transformation of endometrium (sequential norgestimate, histological sections on day 26)	completion of follicular maturation, ovulation and corpus luteum function (0.1 mg/kg sc on cycle days 2, 9, 16, 23, judged by serum LH, E2 and P levels)	LH surges or serum progesterone rises (during the intermittent regimen)	serum progesterone (during the treatment cycles)
C#C[C@]1(OC(C)=O)CC[C@H]2[C@@H]3CCC4=CC(=NO)CC[C@@H]4[C@H]3CC[C@@]21CC (mixture of isomers) [norgestimate]	effectively transformed proliferative to secretory endometrium	–	–	–
[Ac-D2 Nal^1, 4ClDPhe^2, D3 Pal^3, Arg^5,DGlu^6 (AA), DAla^10 ]- GnRH [Nal-Glu]	–	effectively blocked	NO LH surges or serum progesterone rises were detected	< 0.1 ng/mL
